For five molecules, inhibition results are on record in ChEMBL document CHEMBL3132769, “Fragment growing to retain or alter the selectivity of anchored kinase hinge-binding fragments” (Medchemcomm, 2014).

The target of test [1] is RAF proto-oncogene serine/threonine-protein kinase (Homo sapiens) (UniProt P04049). The test is described as follows: Inhibition of human truncated c-Raf expressed in baculovirus assessed as substrate phosphorylation using fluorescence-labelled peptides as substrate at 0.2 uM after 90 mins by microfluidic peptide phosphorylation assay.
RAF proto-oncogene serine/threonine-protein kinase (Homo sapiens), sequence (P04049 whole entry, the tested form may be a part): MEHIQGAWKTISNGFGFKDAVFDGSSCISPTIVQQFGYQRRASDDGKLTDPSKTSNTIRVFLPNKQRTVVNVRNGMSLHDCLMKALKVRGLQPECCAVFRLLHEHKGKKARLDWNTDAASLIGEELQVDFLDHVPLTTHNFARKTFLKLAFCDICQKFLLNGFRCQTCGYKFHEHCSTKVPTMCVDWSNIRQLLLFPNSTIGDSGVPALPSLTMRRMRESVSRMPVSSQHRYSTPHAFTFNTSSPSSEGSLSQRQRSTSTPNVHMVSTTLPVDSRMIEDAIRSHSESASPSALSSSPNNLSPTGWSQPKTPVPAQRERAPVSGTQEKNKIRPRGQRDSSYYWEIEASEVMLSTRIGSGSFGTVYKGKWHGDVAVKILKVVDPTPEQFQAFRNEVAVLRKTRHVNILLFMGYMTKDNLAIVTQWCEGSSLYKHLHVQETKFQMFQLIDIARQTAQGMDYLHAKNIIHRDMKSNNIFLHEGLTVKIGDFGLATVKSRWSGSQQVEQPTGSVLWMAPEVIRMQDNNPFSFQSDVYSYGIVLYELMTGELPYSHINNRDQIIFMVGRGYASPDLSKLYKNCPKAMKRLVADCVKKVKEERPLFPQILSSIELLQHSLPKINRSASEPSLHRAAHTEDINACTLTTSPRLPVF
Test [2] deals with T1, Serine/threonine-protein kinase Sgk2 (Homo sapiens) (UniProt Q9HBY8).
T1 sequence (whole entry): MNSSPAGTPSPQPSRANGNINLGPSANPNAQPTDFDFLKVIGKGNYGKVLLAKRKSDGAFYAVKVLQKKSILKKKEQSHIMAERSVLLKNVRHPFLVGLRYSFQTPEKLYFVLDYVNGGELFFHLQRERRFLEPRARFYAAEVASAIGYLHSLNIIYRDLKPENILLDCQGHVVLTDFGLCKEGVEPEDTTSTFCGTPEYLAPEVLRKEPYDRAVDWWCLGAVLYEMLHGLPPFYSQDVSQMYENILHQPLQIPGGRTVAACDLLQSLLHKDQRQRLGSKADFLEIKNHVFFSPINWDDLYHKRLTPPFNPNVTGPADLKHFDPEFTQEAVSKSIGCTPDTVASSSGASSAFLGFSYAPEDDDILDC
Description: Inhibition of human full length SGK2 expressed in baculovirus assessed as substrate phosphorylation using fluorescence-labelled peptides as substrate at 0.1 uM after 90 mins by microfluidic peptide phosphorylation assay.

Test [3] has as its target Tyrosine-protein kinase ABL1 (Homo sapiens) (UniProt P00519). The note with it: 0.1 uM.
Description: Inhibition of human full-length ABL expressed in baculovirus assessed as substrate phosphorylation using fluorescence-labelled peptides as substrate at 0.1 uM after 90 mins by microfluidic peptide phosphorylation assay
Test [4] concerns the target T2, Inhibitor of nuclear factor kappa-B kinase subunit beta (Homo sapiens) (UniProt O14920).
T2 sequence (whole entry): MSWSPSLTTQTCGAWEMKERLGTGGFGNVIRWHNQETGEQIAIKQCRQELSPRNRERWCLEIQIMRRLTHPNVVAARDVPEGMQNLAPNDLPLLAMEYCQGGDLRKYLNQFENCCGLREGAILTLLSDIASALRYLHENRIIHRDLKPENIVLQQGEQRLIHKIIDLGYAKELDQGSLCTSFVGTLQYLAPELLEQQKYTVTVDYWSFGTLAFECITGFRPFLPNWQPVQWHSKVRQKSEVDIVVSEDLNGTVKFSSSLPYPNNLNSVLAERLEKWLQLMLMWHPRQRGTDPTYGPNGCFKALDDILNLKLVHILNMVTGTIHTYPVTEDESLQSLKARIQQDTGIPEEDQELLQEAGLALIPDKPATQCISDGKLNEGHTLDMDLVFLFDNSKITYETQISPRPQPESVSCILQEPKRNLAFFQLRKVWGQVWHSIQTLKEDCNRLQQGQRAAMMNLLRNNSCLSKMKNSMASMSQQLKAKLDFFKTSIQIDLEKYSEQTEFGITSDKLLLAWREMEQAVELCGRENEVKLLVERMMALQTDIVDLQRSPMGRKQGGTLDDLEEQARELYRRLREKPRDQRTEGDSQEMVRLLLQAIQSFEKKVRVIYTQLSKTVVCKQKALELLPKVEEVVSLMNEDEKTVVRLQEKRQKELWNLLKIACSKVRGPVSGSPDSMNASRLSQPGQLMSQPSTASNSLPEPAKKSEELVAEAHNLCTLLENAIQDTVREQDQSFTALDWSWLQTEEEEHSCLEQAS
The test is described as follows: Inhibition of human full length IKK beta expressed in baculovirus assessed as substrate phosphorylation using fluorescence-labelled peptides as substrate at 8 uM after 90 mins by microfluidic peptide phosphorylation assay.

Test [5] addresses Casein kinase I isoform alpha (Homo sapiens) (UniProt P48729). Description: Inhibition of human full length CSNK1A1 expressed in baculovirus assessed as substrate phosphorylation using fluorescence-labelled peptides as substrate at 2 uM after 90 mins by microfluidic peptide phosphorylation assay.
Test [6] addresses T3, Serine/threonine-protein kinase D2 (Homo sapiens) (UniProt Q9BZL6).
T3 sequence (whole entry): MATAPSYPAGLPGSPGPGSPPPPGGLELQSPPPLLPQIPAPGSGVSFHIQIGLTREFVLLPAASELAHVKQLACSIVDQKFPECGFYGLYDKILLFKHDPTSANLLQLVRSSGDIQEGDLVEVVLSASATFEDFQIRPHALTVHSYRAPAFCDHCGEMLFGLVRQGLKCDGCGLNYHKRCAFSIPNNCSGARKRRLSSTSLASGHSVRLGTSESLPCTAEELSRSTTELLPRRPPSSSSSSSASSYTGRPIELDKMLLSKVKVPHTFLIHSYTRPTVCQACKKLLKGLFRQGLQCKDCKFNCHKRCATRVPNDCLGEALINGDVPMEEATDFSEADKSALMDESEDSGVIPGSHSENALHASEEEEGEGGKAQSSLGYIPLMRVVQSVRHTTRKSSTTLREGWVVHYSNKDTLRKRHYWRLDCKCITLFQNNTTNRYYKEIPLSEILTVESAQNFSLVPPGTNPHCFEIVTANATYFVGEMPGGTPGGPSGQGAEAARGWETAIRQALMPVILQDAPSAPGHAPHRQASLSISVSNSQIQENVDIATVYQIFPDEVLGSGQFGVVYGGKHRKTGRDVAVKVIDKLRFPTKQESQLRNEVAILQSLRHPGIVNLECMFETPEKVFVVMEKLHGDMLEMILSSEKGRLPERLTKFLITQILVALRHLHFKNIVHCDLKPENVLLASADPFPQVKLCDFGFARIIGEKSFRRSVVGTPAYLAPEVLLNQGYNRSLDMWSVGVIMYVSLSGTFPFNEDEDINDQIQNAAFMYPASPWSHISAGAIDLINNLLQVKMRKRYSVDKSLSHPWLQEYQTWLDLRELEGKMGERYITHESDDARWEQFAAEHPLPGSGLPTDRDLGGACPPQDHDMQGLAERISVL
The test is described as follows: Inhibition of human full length PKD2 expressed in baculovirus assessed as substrate phosphorylation using fluorescence-labelled peptides as substrate at 70 uM after 90 mins by microfluidic peptide phosphorylation assay.

The inhibition is how much of the control response was suppressed.

Casein kinase I isoform alpha (Homo sapiens), sequence (P48729 2-337 limits assumed): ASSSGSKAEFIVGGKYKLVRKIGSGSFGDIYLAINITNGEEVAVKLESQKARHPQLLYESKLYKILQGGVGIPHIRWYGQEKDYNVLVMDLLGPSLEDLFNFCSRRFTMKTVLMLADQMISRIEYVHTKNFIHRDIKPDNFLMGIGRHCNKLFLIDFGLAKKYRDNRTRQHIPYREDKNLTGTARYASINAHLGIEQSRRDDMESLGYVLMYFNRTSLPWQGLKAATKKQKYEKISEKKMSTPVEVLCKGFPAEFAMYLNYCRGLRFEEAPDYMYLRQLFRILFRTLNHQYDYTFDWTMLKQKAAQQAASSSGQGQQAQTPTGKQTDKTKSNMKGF
Tyrosine-protein kinase ABL1 (Homo sapiens), sequence (P00519 whole entry): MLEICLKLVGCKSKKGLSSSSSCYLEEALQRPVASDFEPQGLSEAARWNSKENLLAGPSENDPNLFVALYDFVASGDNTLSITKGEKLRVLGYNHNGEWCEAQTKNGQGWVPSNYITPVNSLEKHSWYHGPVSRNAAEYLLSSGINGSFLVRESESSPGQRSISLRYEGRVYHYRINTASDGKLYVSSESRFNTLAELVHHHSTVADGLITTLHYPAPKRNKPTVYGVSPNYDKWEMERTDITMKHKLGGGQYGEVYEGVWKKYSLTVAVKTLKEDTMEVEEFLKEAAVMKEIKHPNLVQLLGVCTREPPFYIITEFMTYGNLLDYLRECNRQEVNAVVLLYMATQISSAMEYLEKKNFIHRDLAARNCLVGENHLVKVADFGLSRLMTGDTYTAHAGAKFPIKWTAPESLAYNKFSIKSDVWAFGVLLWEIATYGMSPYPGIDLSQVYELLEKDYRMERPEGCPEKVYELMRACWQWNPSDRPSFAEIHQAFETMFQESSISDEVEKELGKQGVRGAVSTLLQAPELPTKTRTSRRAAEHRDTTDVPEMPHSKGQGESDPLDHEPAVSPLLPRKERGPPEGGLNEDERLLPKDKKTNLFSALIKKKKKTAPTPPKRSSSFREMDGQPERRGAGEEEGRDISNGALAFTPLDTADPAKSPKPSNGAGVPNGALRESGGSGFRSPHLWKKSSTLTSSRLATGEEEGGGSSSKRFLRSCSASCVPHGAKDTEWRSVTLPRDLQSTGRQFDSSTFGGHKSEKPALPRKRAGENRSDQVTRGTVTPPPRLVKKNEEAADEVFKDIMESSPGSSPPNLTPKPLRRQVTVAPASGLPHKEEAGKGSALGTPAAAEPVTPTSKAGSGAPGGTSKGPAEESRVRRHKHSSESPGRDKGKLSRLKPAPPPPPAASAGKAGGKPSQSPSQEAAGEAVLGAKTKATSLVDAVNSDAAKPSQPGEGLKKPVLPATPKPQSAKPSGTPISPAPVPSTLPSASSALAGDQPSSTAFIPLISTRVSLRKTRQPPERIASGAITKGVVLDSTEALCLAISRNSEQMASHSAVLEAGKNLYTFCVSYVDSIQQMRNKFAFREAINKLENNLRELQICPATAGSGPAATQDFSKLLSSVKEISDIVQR

Take `Clc1ccc(C2(c3ccc(-c4ncnc5[nH]cnc45)cc3)CCNCC2)cc1`: the inhibition in test [1] came to 3.5%. `C[C@H](CN(C)C)Oc1nc(Nc2cc3cccc(Cl)c3cn2)cnc1C#N`: the inhibition in test [2] worked out at 5.5%; in test [3], 0%. In the case of `NCC1CCN(c2ncnc3[nH]ccc23)CC1`, in test [4], the inhibition worked out at 13.5%.

For the molecule `NC1CCN(c2ncnc3[nH]ccc23)CC1`, the inhibition in test [5] was found to be 9.5%. For `CNCc1ccc(-c2ncnc3[nH]cnc23)cc1`, the inhibition in test [6] amounted to 77.5%.
